Data on seven molecules can be found in patent US8067582B2 (Bristol-Myers Squibb Company, priority 2007, dated 2011).

Test [1] addresses endogenous wild type AR. To be noted: read-out: Kd for [3H]-DHT; MDA-MB-453 cells, saturation analysis, Scatchard. Here is the method: For the whole cell binding assay, human breast adenocarcinoma MDA-MB-453 cells (American Type Culture Collection, Rockville, Md., ATCC #: HTB-131), expressing a functional endogenous wild type AR, are grown to near confluency in T-225 tissue culture flasks containing Dulbecco's Modified Eagle Medium (DMEM) (Mediatech CAT #45000-668) supplemented with 10% fetal bovine serum (FBS) (Invitrogen/GIBCO Life Science). In order to remove any endogenous ligand that might be complexed with the receptor in the cells, the tissue culture media is removed and the cells are incubated overnight at 37° C. in serum-free DMEM. […] After the remaining media is removed, cells are washed three times with PBS and harvested onto UniFilter GF/B plates (PerkinElmer).
Two replicates are used for each sample. After 90 minutes at room temperature, cells are harvested by filtering through a GF/B filter plate (PerkinElmer) followed by washing with ice-cold 1×PBS (without calcium and magnesium) to remove unbound label. […] After correcting for non-specific binding, IC50 values are determined. The IC50 value is defined as the concentration of competing ligand needed to reduce specific binding by 50%. […] The Ki values are determined by application of the Cheng-Prusoff equation to the IC50 values where: […]

In test [2] the target is T1, androgen receptor (AR) (Homo sapiens, UniProt P10275).
T1 sequence (P10275 1-920): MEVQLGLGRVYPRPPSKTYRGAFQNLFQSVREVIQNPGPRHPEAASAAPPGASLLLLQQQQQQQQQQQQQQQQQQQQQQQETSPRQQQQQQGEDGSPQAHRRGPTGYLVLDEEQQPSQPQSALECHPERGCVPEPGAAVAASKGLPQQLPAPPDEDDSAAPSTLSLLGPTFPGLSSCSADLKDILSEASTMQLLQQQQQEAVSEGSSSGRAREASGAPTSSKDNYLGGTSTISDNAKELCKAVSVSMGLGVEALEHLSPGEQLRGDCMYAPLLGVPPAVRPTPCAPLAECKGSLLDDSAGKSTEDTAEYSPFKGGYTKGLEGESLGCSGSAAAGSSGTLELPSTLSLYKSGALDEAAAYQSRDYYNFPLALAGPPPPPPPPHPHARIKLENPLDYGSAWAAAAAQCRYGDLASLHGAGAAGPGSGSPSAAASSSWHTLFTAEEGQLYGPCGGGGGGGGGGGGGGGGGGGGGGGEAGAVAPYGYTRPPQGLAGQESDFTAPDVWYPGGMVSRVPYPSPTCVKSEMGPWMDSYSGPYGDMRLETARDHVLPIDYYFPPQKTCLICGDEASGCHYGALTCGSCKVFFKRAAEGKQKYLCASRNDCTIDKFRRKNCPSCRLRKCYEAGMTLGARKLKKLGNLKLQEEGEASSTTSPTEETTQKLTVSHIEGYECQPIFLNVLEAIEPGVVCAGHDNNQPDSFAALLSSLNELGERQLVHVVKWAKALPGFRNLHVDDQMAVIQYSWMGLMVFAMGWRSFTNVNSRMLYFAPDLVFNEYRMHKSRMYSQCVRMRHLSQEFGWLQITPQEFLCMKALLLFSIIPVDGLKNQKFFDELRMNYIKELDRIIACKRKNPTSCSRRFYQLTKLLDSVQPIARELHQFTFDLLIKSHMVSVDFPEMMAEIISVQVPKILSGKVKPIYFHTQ
Nature of the test: MDA-MB-453 Androgen Receptor Transactivation Assay (PSA-Luc reporter, 3 nM DHT). The test is classed as cell-based. To be noted: MDA-MB-453 cells, antagonism in presence of 3 nM DHT, 48 hour incubation.

In test [3] the test system is immature castrated male rats. Put plainly: Immature Rat Prostate Weight (IRPW) Assay. The test is classed as in vivo, rat (Sprague-Dawley). Conditions: Rattus norvegicus, 96 h, read-out: IRPW SV/FB (% control).
[4] abbreviates: immature castrated rats, 3 mpk PO QD × 4 days.

Read-outs that look alike come from different tables or passages of the source.

As a reminder, the Kd is the constant that tells how readily two partners part at equilibrium. For `C[C@]12CCC(=O)C[C@@H]1CC[C@@H]1[C@@H]2CC[C@]2(C)[C@@H](O)CC[C@@H]12` [[^3H]-DHT, tritiated dihydrotestosterone], the Kd in test [1] was 0.4 nM.

What is called IC50 is the concentration that gives 50% inhibition. With `CO/N=C1\C[C@@]2(C)O[C@@]13CCO[C@H]1[C@@H]3[C@@H]2C(=O)N1c1ccc(C#N)c(C(F)(F)F)c1` [Example 30, 4-((1R,2E,4R,5S,8S,12R)-2-(methoxyimino)-4-methyl-6-oxo-9,13-dioxa-7-azatetracyclo[6.3.1.1^1,4.0^5,12]tridec-7-yl)-2-(trifluoromethyl)benzonitrile], the half-inhibitory concentration (IC50) in test [2] was 31 nM. Further, the response vs control in vivo at 3 mg/kg in test [3] (po) was found to be 37%.

`CCS(=O)(=O)N[C@H]1C[C@@]2(C)O[C@@]13CCO[C@H]1[C@@H]3[C@@H]2C(=O)N1c1ccc(C#N)c(Br)c1` [Example 179, N-((1R,2S,4R,5S,8S,12R)-7-(3-Bromo-4-cyanophenyl)-4-methyl-6-oxo-9,13-dioxa-7-azatetracyclo[6.3.1.1^1,4.0^5,12]tridec-2-yl)ethanesulfonamide]: in test [2] (read-out: IC50), the 50% inhibitory concentration (IC50) worked out at 141 nM. The response vs control in vivo at 3 mg/kg in test [3] (setting [4]) was found to be 31%.

In the case of `C#Cc1cc(N2C(=O)[C@H]3[C@H]4[C@@H]2OCC[C@@]42O[C@]3(C)C[C@@H]2O)ccc1C#N` [Example 62, 2-Ethynyl-4-((1R,2S,4R,5S,8S,12R)-2-hydroxy-4-methyl-6-oxo-9,13-dioxa-7-azatetracyclo[6.3.1.1^1,4.0^5,12]tridec-7-yl)benzonitrile], the 50% inhibitory concentration (IC50) in test [2] (read-out: IC50) was 1920 nM. The response vs control in vivo at 3 mg/kg in test [3] (setting [4]) was 108%.

`COC(=O)N[C@@H]1C[C@]23CCO[C@@H]4[C@H]2[C@@H](C(=O)N4c2ccc(C#N)c(C(F)(F)F)c2)[C@@]1(C)O3` [Example 14, Methyl ((1S,3R,4R,5R,8R,12S)-7-(4-cyano-3-(trifluoromethyl)phenyl)-4-methyl-6-oxo-9,13-dioxa-7-azatetracyclo[6.3.1.1^1,4.0^5,12]tridec-3-yl)carbamate]: the half-maximal inhibitory concentration (IC50) in test [2] was found to be 185 nM. The response vs control in vivo at 3 mg/kg in test [3] (po) is 35%.

With `C[C@@]12C[C@H](O)[C@]3(CCO[C@H]4[C@@H]3[C@@H]1C(=O)N4c1cnc(C#N)c(C(F)(F)F)c1)O2` [Example 267, 5-((1R,2S,4R,5S,8S,12R)-2-hydroxy-4-methyl-6-oxo-9,13-dioxa-7-azatetracyclo[6.3.1.1^1,4.0^5,12]tridec-7-yl)-3-(trifluoromethyl)-2-pyridinecarbonitrile], the 50% inhibitory concentration (IC50) in test [2] (read-out: IC50) stood at 427 nM. Besides, in test [3] (setting [4]), the response vs control in vivo at 3 mg/kg is 40%.

As to `C[C@]12O[C@@]3(CCO[C@H]4[C@@H]3[C@@H]1C(=O)N4c1ccc(C#N)c(C(F)(F)F)c1)[C@H](NS(C)(=O)=O)[C@H]2O` [Example 246, N-((1R,2R,3R,4S,5S,8S,12R)-7-(4-Cyano-3-(trifluoromethyl)phenyl)-3-hydroxy-4-methyl-6-oxo-9,13-dioxa-7-azatetracyclo[6.3.1.1^1,4.0^5,12]tridec-2-yl)methanesulfonamide], the concentration for half-maximal inhibition (IC50) in test [2] amounted to 280 nM. Moreover, the response vs control in vivo at 3 mg/kg in test [3] (po) turned out to be 98%.
